Columns and labels:
[1] = molecular target: T1, farnesyl pyrophosphate synthase (PaFPPS, PA4043) (Pseudomonas aeruginosa, UniProt Q9HWY4); test: turnover with GPP by the purified enzyme, pyrophosphatase-coupled malachite green assay (kcat […] s^-1; no inhibition implied); type: biochemical
T1 construct: gene ispA; full-length, 295 amino acids
T1 sequence (Q9HWY4 1-295): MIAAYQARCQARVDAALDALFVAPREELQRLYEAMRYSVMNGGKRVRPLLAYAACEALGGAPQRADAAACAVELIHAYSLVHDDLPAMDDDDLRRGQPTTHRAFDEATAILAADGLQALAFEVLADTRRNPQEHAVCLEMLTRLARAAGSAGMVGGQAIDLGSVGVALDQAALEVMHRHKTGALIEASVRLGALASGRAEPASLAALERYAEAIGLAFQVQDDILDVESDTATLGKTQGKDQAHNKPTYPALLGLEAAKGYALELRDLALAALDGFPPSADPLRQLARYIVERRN

[2] = molecular target: T2, farnesyl pyrophosphate synthase (PaFPPS, PA4043) (Pseudomonas aeruginosa, UniProt Q9HWY4); test: X-ray crystal structure at […] Å (also with GPP, 3zou); DSF shift […] °C; no significant inhibition at […]; type: binding
T2 construct: gene ispA; full-length, 295 amino acids, His tag cleaved with TEV

[3] = molecular target: the molecule itself; test: crystal structure; sitting-drop vapour diffusion, 25 mg/ml protein; native: 20% PEG 3350, 0.2 M NaF, 0.1 M bis-tris propane pH 6.5; asymmetric unit holds a dimer related by a twofold noncrystallographic axis; 1.55 A

C=C(C)CCO[P@@](=O)(O)OP(=O)(O)O [isopentenyl pyrophosphate]
turnover with GPP by the purified enzyme, pyrophosphatase-coupled malachite gree [1]: no reaction took place without both IPP and GPP being present

O=C(O)CCn1c(=O)oc2ccccc21 [SPB02696, 3-[2-hydrozybenzo[d]oxazol-3(2H)-yl]propanoic acid]
X-ray crystal structure at 1.90 Å (also with GPP, 3zou); DSF shift 2.8 °C; no si [2]: we describe the details of the enzyme–ligand interactions for fragment hit SPB02696 (termed 6H6 in the deposited coordinate file)

B1: farnesyl pyrophosphate synthase from Pseudomonas aeruginosa PAO1 (locus PA4043) (enzyme, UniProt Q9HWY4 1-295, looked up)
chain: MIAAYQARCQARVDAALDALFVAPREELQRLYEAMRYSVMNGGKRVRPLLAYAACEALGGAPQRADAAACAVELIHAYSLVHDDLPAMDDDDLRRGQPTTHRAFDEATAILAADGLQALAFEVLADTRRNPQEHAVCLEMLTRLARAAGSAGMVGGQAIDLGSVGVALDQAALEVMHRHKTGALIEASVRLGALASGRAEPASLAALERYAEAIGLAFQVQDDILDVESDTATLGKTQGKDQAHNKPTYPALLGLEAAKGYALELRDLALAALDGFPPSADPLRQLARYIVERRN
notes: farnesyl pyrophosphate synthase, P. aeruginosa PAO1, locus PA4043; open reading frame amplified from the genome; protein of 295 amino acids; residues Ala227-Gly254 (loop-HI) disordered in all structures; Vector pNIC28-Bsa4 with N-terminal six-histidine tag and TEV site; the tag is cleaved in the purification; The ESI-MS mass of 34 017.5 Da was of the protein with the His tag; also called PaFPPS; …
stoichiometry N [3]: 2
